Patent US8258140B2 (Astrazeneca AB, priority 2009, dated 2012)

Molecular target: T1, Androgen Receptor (AR) in the LNCaP prostate carcinoma cell line (Homo sapiens, UniProt P10275, T878A)
T1 construct: cell based immuno-fluorescence assay using the LNCaP prostate epithelial cell line; host or cells: LNCaP clone FGC
T1 sequence (P10275 1-920 T878A): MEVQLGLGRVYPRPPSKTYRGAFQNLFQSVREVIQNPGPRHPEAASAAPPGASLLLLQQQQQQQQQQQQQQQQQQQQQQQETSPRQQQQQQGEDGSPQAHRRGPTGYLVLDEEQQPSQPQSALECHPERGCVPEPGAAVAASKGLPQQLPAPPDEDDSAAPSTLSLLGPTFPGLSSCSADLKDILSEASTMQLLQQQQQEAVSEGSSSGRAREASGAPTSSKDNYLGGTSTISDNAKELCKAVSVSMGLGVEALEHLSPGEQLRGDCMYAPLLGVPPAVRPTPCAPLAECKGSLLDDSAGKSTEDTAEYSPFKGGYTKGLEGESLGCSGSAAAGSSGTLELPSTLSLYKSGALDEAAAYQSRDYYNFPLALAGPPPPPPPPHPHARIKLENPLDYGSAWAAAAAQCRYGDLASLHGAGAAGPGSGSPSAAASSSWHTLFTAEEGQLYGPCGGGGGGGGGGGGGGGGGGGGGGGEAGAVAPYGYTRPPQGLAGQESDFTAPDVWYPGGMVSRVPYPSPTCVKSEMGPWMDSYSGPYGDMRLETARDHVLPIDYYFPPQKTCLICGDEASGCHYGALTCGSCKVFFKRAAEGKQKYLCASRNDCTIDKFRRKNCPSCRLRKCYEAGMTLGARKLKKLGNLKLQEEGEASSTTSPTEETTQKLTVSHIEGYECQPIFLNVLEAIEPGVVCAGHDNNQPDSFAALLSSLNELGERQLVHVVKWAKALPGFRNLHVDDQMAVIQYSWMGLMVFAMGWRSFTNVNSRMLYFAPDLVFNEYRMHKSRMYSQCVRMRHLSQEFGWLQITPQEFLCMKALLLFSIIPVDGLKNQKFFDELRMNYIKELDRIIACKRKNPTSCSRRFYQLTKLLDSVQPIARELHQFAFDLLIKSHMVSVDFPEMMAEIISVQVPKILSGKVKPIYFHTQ
Assay: LNCaP Androgen Receptor Down-Regulation Cell Assay (immunofluorescence end point)
Assay type: cell-based
Settings: LNCaP cells, compound incubation 20-22 hours, concentration giving 50% reduction of the AR signal
Experimental: The ability of compounds to reduce Androgen Receptor (AR) numbers was assessed in a cell based immuno-fluorescence assay using the LNCaP prostate epithelial cell line.
This immunofluorescence end point assay measures the ability of a test compound to down-regulate and reduce measured levels of the AR in the LNCaP prostate carcinoma cell line (LNCaP clone FGC (CRL-1740) obtained from the American Type Culture Collection (ATCC)).
LNCaP cells were cultured in Growth Medium (phenol red free Roswell Park Memorial Institute (RPMI) 1640 (Invitrogen Code no. 11835-063) containing 2 mM L-Glutamine (Invitrogen Code no. 25030-024) and 1% (v/v) Penicillin/Streptomycin (10000 units/ml Penicillin and 10000 μg/ml of Streptomycin utilising penicillin G (sodium salt) and streptomycin sulphate: prepared in normal saline, Invitrogen Code no. 15140122) and 10% (v/v) foetal bovine serum (FBS)) in a 5% CO2 air incubator at 37° C. Cells for assay were harvested from T175 stock flasks by washing once in PBS (phosphate buffered saline, pH 7.4) (Invitrogen Code no. 14190-094) and harvested using 5 mls of 1× Trypsin/ethylaminediaminetetraacetic acid (EDTA) (10× Trypsin-EDTA, 5.0 g/L Trypsin, 2.0 g/L of EDTA.4Na and 8.5 g/L of NaCl, without Phenol Red, Invitrogen Code no. 15400-054) diluted in PBS solution. A 5 ml volume of Growth Medium was added to each flask (as above except that 5% (v/v) charcoal stripped FBS (HyClone Code no. SH30068.03) was included instead of 10% (v/v) FBS). Cells were syringed at least twice using a sterile 18 G×1.5″ (1.2×40 mm) broad gauge needle and cell density was measured using a haemocytometer. Cells were further diluted in Growth Medium plus 5% (v/v) charcoal stripped FBS and seeded at a density of 6.5×10^3 cells per well (in 90 ul) into transparent, black, tissue culture treated 96 well plates (Packard, No. 6005182).
Test data reported herein was generated using two different compounds preparation and dosing methods. In method (1) a 10 mM compound stock solution in 100% (v/v) DMSO was serially diluted in 4-fold steps in 100% (v/v) DMSO using a Thermo Scientific Matrix SerialMate. The diluted compounds were then further diluted 1 in 30 in assay media using a Thermo Scientific Matrix PlateMate and a 10 μl aliquot of this dilution was dosed to cells manually using a multi-channel pipette. In method (2) starting with a 10 mM compound stock solution, the Labcyte Echo 550 was used to generate a compound concentration response set diluted in 30 μl of assay media. The Echo 550 is a liquid handler that uses acoustic technology to perform direct microplate-to-microplate transfers of DMSO compound solutions. The system can be programmed to transfer volumes as low as 2.5 nL in multiple increments between microplates and in so doing generates a serial dilution of compound which is then back-filled to normalise the DMSO concentration across the dilution range. A 10 μl volume of diluted compound is then dosed to cells using a Thermo Scientific Matrix PlateMate.
Plates were incubated overnight at 37° C., 5% CO2. Wells were then dosed with compound prepared by one of the 2 methods above and further incubated for 20-22 hours at 37° C., 5% CO2. Plates were fixed by the addition of 20 μl of 10% (v/v) formaldehyde solution (in PBS) to each well (final formaldehyde conc.=1.67% (v/v)) and left at room temperature for 10 mins. This fixative solution was removed and cells were washed with 250 μl of PBS/0.05% (v/v) Tween 20 (PBST) using an automated plate washer. This process was then repeated twice more.
Immunostaining was performed at room temperature. Cells were permeabilised by the addition of 35 μl of PBS containing 0.5% Tween 20 and incubated for 1 hour at room temperature. Permeabilisation solution was removed and cells were washed with 250 μl of PBST using an automated plate washer. This process was then repeated twice more. […]

Structure (SMILES) | IC50 [µM]
Cn1nccc1CCOc1ccc(N2CCN(C3=Nn4c(nnc4C(F)(F)F)CC3)CC2)cc1 [Example 16, 6-[4-[4-[2-(1-methyl-1H-pyrazol-5-yl)ethoxy]phenyl]piperazin-1-yl]-3-(trifluoromethyl)-7,8-dihydro[1,2,4]triazolo[4,3-b]pyridazine] | 3.2
CCCCC(=O)N1CCN(CCOc2ccc(C3CCN(C4=Nn5c(nnc5C(F)(F)F)CC4)CC3)cc2)CC1 [Example 25, 6-(4-{4-[2-(4-pentanoylpiperazin-1-yl)ethoxy]phenyl}piperidin-1-yl)-3-(trifluoromethyl)-7,8-dihydro[1,2,4]triazolo[4,3-b]pyridazine] | 0.93
CC(=O)N1CCN(CCOc2ccc(C3(O)CCN(C4=Nn5c(nnc5C(F)(F)F)CC4)CC3)cc2)CC1 [Example 45, 4-{4-[2-(4-acetylpiperazin-1-yl)ethoxy]phenyl}-1-[3-(trifluoromethyl)-7,8-dihydro[1,2,4]triazolo[4,3-b]pyridazin-6-yl]piperidin-4-ol] | 12
Fc1ccc(CN2CCN(C3=Nn4c(nnc4C(F)(F)F)CC3)CC2)cc1 [Example 1, 6-[4-(4-fluorobenzyl)piperazin-1-yl]-3-(trifluoromethyl)-7,8-dihydro[1,2,4]triazolo[4,3-b]pyridazine] | 6
FC(F)(F)CCCOc1ccc(C2CCN(C3=Nn4c(nnc4C(F)(F)F)CC3)CC2)cc1 [Example 35, 6-{4-[4-(4,4,4-trifluorobutoxy)phenyl]piperidin-1-yl}-3-(trifluoromethyl)-7,8-dihydro[1,2,4]triazolo[4,3-b]pyridazine] | 2.3
COCCN(C)C(=O)COc1ccc(C2CCN(C3=Nn4c(nnc4C(F)(F)F)CC3)CC2)cc1 [Example 19, N-(2-methoxyethyl)-N-methyl-2-(4-{1-[3-(trifluoromethyl)-7,8-dihydro[1,2,4]triazolo[4,3-b]pyridazin-6-yl]piperidin-4-yl}phenoxy)acetamide] | 2.9
CCCCC(=O)N1CCN(CCOc2ccc(N3CCN(C4=Nn5c(nnc5C(F)(F)F)CC4)CC3)cc2)CC1 [Example 33, 6-(4-{4-[2-(4-pentanoylpiperazin-1-yl)ethoxy]phenyl}piperazin-1-yl)-3-(trifluoromethyl)-7,8-dihydro[1,2,4]triazolo[4,3-b]pyridazine] | 7.8
FC(F)(F)c1nnc2n1N=C(N1CCN(Cc3c[nH]c4ccccc34)CC1)CC2 [Example 11, 6-[4-(1H-indol-3-ylmethyl)piperazin-1-yl]-3-(trifluoromethyl)-7,8-dihydro[1,2,4]triazolo[4,3-b]pyridazine] | 8.6

Compounds with a lower IC50, results first:

IC50 [µM] | Structure (SMILES)
0.76 | C[C@H]1C(=O)N(C)CCN1CCOc1ccc(C2CCN(C3=Nn4c(nnc4C(F)(F)F)CC3)CC2)cc1 [Example 50, (3S)-1,3-dimethyl-4-[2-(4-{1-[3-(trifluoromethyl)-7,8-dihydro[1,2,4]triazolo[4,3-b]pyridazin-6-yl]piperidin-4-yl}phenoxy)ethyl]piperazin-2-one]
0.67 | CCCCC(=O)N1CCN(CCCOc2ccc(C3CCN(C4=Nn5c(nnc5C(F)(F)F)CC4)CC3)cc2)CC1 [Example 27, 6-(4-{4-[3-(4-pentanoylpiperazin-1-yl)propoxy]phenyl}piperidin-1-yl)-3-(trifluoromethyl)-7,8-dihydro[1,2,4]triazolo[4,3-b]pyridazine]
0.66 | CCc1nccn1CCOc1ccc(C2CCN(C3=Nn4c(nnc4C(F)(F)F)CC3)CC2)cc1 [Example 42, 6-(4-{4-[2-(2-ethyl-1H-imidazol-1-yl)ethoxy]phenyl}piperidin-1-yl)-3-(trifluormethyl)-7,8-dihydro[1,2,4]triazolo[4,3-b]pyridazine]
0.18 | CC(=O)N1CCN([C@H](C)COc2ccc(C3CCN(C4=Nn5c(nnc5C(F)(F)F)CC4)CC3)cc2)CC1 (single isomer, unassigned) [Example 53]
